This test deals with BDF1 mice, B16 melanoma ip, median survival T/C. Nature of the test: NCI In Vivo Anticancer Drug Screen. Data for tumor model B16 Melanoma (intraperitoneal) in B6D2F1 (BDF1) mice. Conditions: endpoint: median survival time, higher = longer survival. The procedure, abridged: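 Tumor-bearing mice received test compound or vehicle. Survival or tumor size was then measured in both groups. The treated-group figure was divided by the control-group figure.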

Where [1] appears, read: dose: 50.0 mg/kg/injection, schedule: Q01DX009 (ip), vehicle: saline with Tween-80.
Where [2] appears, read: dose: 100.0 mg/kg/injection, schedule: Q01DX009 (ip), vehicle: saline with Tween-80.
The mark [3] stands for this setting: dose: 200.0 mg/kg/injection, schedule: Q01DX009 (ip), vehicle: saline with Tween-80.
Setting [4] is: dose: 100.0 mg/kg/injection, schedule: Q01DX009 (ip), vehicle: Klucel (hydroxypropylcellulose) (HPC).
The mark [5] stands for this setting: dose: 200.0 mg/kg/injection, schedule: Q01DX009 (ip), vehicle: Klucel (hydroxypropylcellulose) (HPC).
The mark [6] stands for this setting: dose: 400.0 mg/kg/injection, schedule: Q01DX009 (ip), vehicle: Klucel (hydroxypropylcellulose) (HPC).
Where [7] appears, read: dose: 25.0 mg/kg/injection, schedule: Q01DX009 (ip), vehicle: Klucel (hydroxypropylcellulose) (HPC).
Setting [8] is: dose: 50.0 mg/kg/injection, schedule: Q01DX009 (ip), vehicle: Klucel (hydroxypropylcellulose) (HPC).
The mark [9] stands for this setting: dose: 400.0 mg/kg/injection, schedule: Q01DX009 (ip), vehicle: saline with Tween-80.

Toxic doses and inconclusive results are not listed. Square brackets hold non-standard residues; d marks the D form. Peptide text beside a SMILES is read from it. * marks the point of attachment. ξ: configuration not given here. Cbz = O=C(OCc1ccccc1)*; ξI = CCC(C)C(N)C(=O)O

With `CC1CCC[N-]C1.CC1CCC[N-]C1.CC1CCC[N-]C1.CC1CCC[N-]C1.[Cl][Rh][Cl]` (stereo not given), the T/C by setting is: (dose: 3.0 mg/kg/injection, schedule: Q01DX009 (ip), vehicle: Klucel (hydroxypropylcellulose) (HPC)) 111 % of control; (dose: 6.0 mg/kg/injection, schedule: Q01DX009 (ip), vehicle: Klucel (hydroxypropylcellulose) (HPC)) 110 % of control; (dose: 12.0 mg/kg/injection, schedule: Q01DX009 (ip), vehicle: Klucel (hydroxypropylcellulose) (HPC)) 115 % of control.

Turning to `CC(C)C1OC(=O)/C=C/C=C/C=C/C=C/C=C/CC(O)C(C)C(O)CC(O)CC(O)CC(O)CC(O)CC(O)CC(O)/C=C/C1C` (stereo not given), the T/C (dose: 6.25 mg/kg/injection, schedule: Q01DX009 (ip), vehicle: saline) was 98 % of control.

For `Cc1cc2nc(CN)[nH]c2cc1C`, the T/C under setting [1] was 110 % of control, the T/C under setting [2] is 97 % of control and the T/C under setting [3] was 97 % of control.

`C/C=C/C(=O)OC(C)CCC(CC)CCCC` (stereo not given): the T/C by setting is: under setting [4], 90 % of control; under setting [5], 90 % of control; under setting [6], 90 % of control.

`Cc1ccc2c([N+](=O)[O-])cccc2n1`: the T/C runs as follows: under setting [7], 107 % of control; under setting [8], 93 % of control; under setting [4], 98 % of control.

For the molecule `Cc1ccc(C)c(NC(=O)Nc2ccc(Cl)cc2)c1`, the T/C is 121 % of control (dose: 50.0 mg/kg/injection, schedule: Q01DX009 (ip), vehicle: gum acacia); 92 % of control (dose: 100.0 mg/kg/injection, schedule: Q01DX009 (ip), vehicle: gum acacia); 98 % of control (dose: 200.0 mg/kg/injection, schedule: Q01DX009 (ip), vehicle: gum acacia).

As for `COc1ccccc1N1C(N)=NC(N)=NC1(C)C`, the T/C is 102 % of control (dose: 25.0 mg/kg/injection, schedule: Q01DX009 (ip), vehicle: saline) and 108 % of control (dose: 50.0 mg/kg/injection, schedule: Q01DX009 (ip), vehicle: saline).

For `Cn1cnc([N+](=O)[O-])c1S(=O)(=O)NCN1CCOCC1`, the T/C runs as follows: (dose: 12.5 mg/kg/injection, schedule: Q01DX009 (ip), vehicle: Klucel (hydroxypropylcellulose) (HPC)) 98 % of control; under setting [7], 96 % of control; under setting [8], 97 % of control; under setting [4], 94 % of control.

`CCC(C)C(NC(=O)CNC(=O)CNC(=O)OCc1ccccc1)C(=O)O` (stereo not drawn) (Cbz-Gly-Gly-[ξI]-OH): the T/C under setting [1] is 94 % of control, the T/C under setting [2] was 92 % of control, the T/C under setting [3] was 91 % of control and the T/C under setting [9] is 86 % of control.

For `COc1cccc(Cc2ccncc2)c1OC`, the T/C is, setting by setting: (dose: 25.0 mg/kg/injection, schedule: Q01DX009 (ip), vehicle: water) 104 % of control; (dose: 50.0 mg/kg/injection, schedule: Q01DX009 (ip), vehicle: water) 98 % of control; (dose: 100.0 mg/kg/injection, schedule: Q01DX009 (ip), vehicle: water) 98 % of control.

Turning to `CC1(CO)C(O)CCC2(C)C1CCC1CC3CC12CCC3(O)CO` (stereo not given), the T/C by setting is: (dose: 0.78 mg/kg/injection, schedule: Q03HX020 (oral), vehicle: Klucel (hydroxypropylcellulose) (HPC)) 97 % of control; (dose: 1.56 mg/kg/injection, schedule: Q03HX020 (oral), vehicle: Klucel (hydroxypropylcellulose) (HPC)) 107 % of control; (dose: 3.12 mg/kg/injection, schedule: Q03HX020 (ip), vehicle: Klucel (hydroxypropylcellulose) (HPC)) 89 % of control; (dose: 3.12 mg/kg/injection, schedule: Q03HX020 (oral), vehicle: Klucel (hydroxypropylcellulose) (HPC)) 99 % of control; (dose: 6.25 mg/kg/injection, schedule: Q03HX020 (ip), vehicle: Klucel (hydroxypropylcellulose) (HPC)) 108 % of control; (dose: 6.25 mg/kg/injection, schedule: Q03HX020 (oral), vehicle: Klucel (hydroxypropylcellulose) (HPC)) 102 % of control. For the same molecule, the T/C by setting is: (dose: 12.5 mg/kg/injection, schedule: Q03HX020 (ip), vehicle: Klucel (hydroxypropylcellulose) (HPC)) 118 % of control; (dose: 12.5 mg/kg/injection, schedule: Q03HX020 (oral), vehicle: Klucel (hydroxypropylcellulose) (HPC)) 99 % of control; (dose: 25.0 mg/kg/injection, schedule: Q03HX020 (ip), vehicle: Klucel (hydroxypropylcellulose) (HPC)) 115 % of control; (dose: 25.0 mg/kg/injection, schedule: Q03HX020 (oral), vehicle: Klucel (hydroxypropylcellulose) (HPC)) 98 % of control; (dose: 25.0 mg/kg/injection, schedule: Q04DX003 (ip), vehicle: Klucel (hydroxypropylcellulose) (HPC)) 100 % of control; (dose: 50.0 mg/kg/injection, schedule: Q03HX020 (ip), vehicle: Klucel (hydroxypropylcellulose) (HPC)) 176 % of control. Besides, the T/C runs as follows: (dose: 50.0 mg/kg/injection, schedule: Q03HX020 (oral), vehicle: Klucel (hydroxypropylcellulose) (HPC)) 104 % of control; (dose: 50.0 mg/kg/injection, schedule: Q04DX003 (ip), vehicle: Klucel (hydroxypropylcellulose) (HPC)) 105 % of control; (dose: 100.0 mg/kg/injection, schedule: Q03HX020 (oral), vehicle: Klucel (hydroxypropylcellulose) (HPC)) 117 % of control; (dose: 100.0 mg/kg/injection, schedule: Q04DX003 (ip), vehicle: Klucel (hydroxypropylcellulose) (HPC)) 117 % of control; (dose: 400.0 mg/kg/injection, schedule: Q04DX003 (ip), vehicle: Klucel (hydroxypropylcellulose) (HPC)) 163 % of control.

Turning to `COc1ccc(CC2C(=O)NC(C)C(=O)N(C)C3C(=O)N(C)C(Cc4ccc(O)c(c4)Oc4ccc(cc4)C3O)C(=O)NC(C)C(=O)NC(C)C(=O)N2C)cc1` (stereo not given) (tested in a mixture with another compound), the T/C (dose: 0.12 mg/kg/injection, schedule: Q01DX009 (ip), vehicle: other) was 97 % of control; the T/C (dose: 0.25 mg/kg/injection, schedule: Q01DX009 (ip), vehicle: other) is 109 % of control; the T/C (dose: 0.5 mg/kg/injection, schedule: Q01DX009 (ip), vehicle: other) was 161 % of control; the T/C (dose: 1.0 mg/kg/injection, schedule: Q01DX009 (ip), vehicle: other) was 152 % of control; the T/C (dose: 1.0 mg/kg/injection, schedule: Q01DX009 (ip), vehicle: saline with Tween-80) was 154 % of control; the T/C (dose: 2.0 mg/kg/injection, schedule: Q01DX009 (ip), vehicle: saline with Tween-80) was 157 % of control. In addition, the T/C is 152 % of control (dose: 250.0 micrograms/kg/injection, schedule: Q01DX009 (ip), vehicle: saline) and 154 % of control (dose: 2000.0 micrograms/kg/injection, schedule: Q01DX009 (ip), vehicle: saline).

Take `CCOC(=O)C(C)Oc1ccccc1[N+](=O)[O-]` (stereo not given): the T/C under setting [4] was 103 % of control, the T/C under setting [5] is 96 % of control and the T/C under setting [6] is 103 % of control.

Consider `Cc1ccc(OS(=O)(=O)c2ccc([N+](=O)[O-])cc2)cc1`, for which the T/C was 97 % of control under setting [8], 97 % of control under setting [4] and 111 % of control under setting [5].

Consider `C[CH2][Pb]([CH2]C)([CH2]C)[N]1C(=O)c2ccccc2C1=O`, for which the T/C reads like this: (dose: 1.56 mg/kg/injection, schedule: Q01DX009 (ip), vehicle: Klucel (hydroxypropylcellulose) (HPC)) 112 % of control; (dose: 3.12 mg/kg/injection, schedule: Q01DX009 (ip), vehicle: Klucel (hydroxypropylcellulose) (HPC)) 109 % of control.

As for `O=C(O)Cc1c(O)ccc2ccccc12`, the T/C by setting is: (dose: 25.0 mg/kg/injection, schedule: Q04DX003 (ip), vehicle: gum acacia) 100 % of control; (dose: 50.0 mg/kg/injection, schedule: Q04DX003 (ip), vehicle: gum acacia) 100 % of control; (dose: 100.0 mg/kg/injection, schedule: Q04DX003 (ip), vehicle: gum acacia) 97 % of control.

For the molecule `[Cl][Ni][Cl].[NH-]CCN1CC1.[NH-]CCN1CC1`, the T/C (dose: 0.78 mg/kg/injection, schedule: Q01DX009 (ip), vehicle: saline) was 98 % of control; the T/C (dose: 1.56 mg/kg/injection, schedule: Q01DX009 (ip), vehicle: saline) is 97 % of control; the T/C (dose: 3.12 mg/kg/injection, schedule: Q01DX009 (ip), vehicle: saline) is 90 % of control.

With `COC1=C(OC)C(=O)C(SC/C=C(\C)CCCC(C)CCCC(C)CCCC(C)C)=CC1=O` (stereo not given), the T/C (dose: 12.5 mg/kg/injection, schedule: Q01DX009 (ip), vehicle: saline with Tween-80) is 108 % of control; the T/C (dose: 25.0 mg/kg/injection, schedule: Q01DX009 (ip), vehicle: saline with Tween-80) is 105 % of control; the T/C under setting [1] is 110 % of control; the T/C under setting [2] was 115 % of control.

In the case of `C[C@]12CC[C@H]3C(=CCc4cc(O)ccc43)[C@@H]1C/C(=N\O)C2=O`, the T/C is 95 % of control under setting [2], 102 % of control under setting [3] and 90 % of control under setting [9].

The values above are taken from PubChem BioAssay AID192 (DTP/NCI, 2004).
